In ChEMBL document CHEMBL1671625, “Comparative in vitro anti-hepatitis C virus activities of a selected series of polymerase, protease, and helicase inhibitors” (Antimicrob Agents Chemother, 2008):

Assays:
Hepatitis C virus [1] = experiment: Antiviral activity against Hepatitis C virus genotype 1b infected in human Huh-Mono cells assessed as reduction in replicon RNA after 4 days by RT-qPCR analysis; assay type: functional, organism-based, Hepacivirus hominis; details: 96 h
[2] = Cytotoxicity against human Huh-9-13 cells after 3 days by MTT assay; assay type: cell-based
[3] = Cytotoxicity against human Huh-Mono cells after 3 days by MTT assay; assay type: cell-based
Hepatitis C virus [4] = experiment: Antiviral activity against Hepatitis C virus genotype 1b infected in human Huh5-2 cells assessed as reduction in replicon RNA after 4 days by luciferase assay; assay type: functional, organism-based, Hepacivirus hominis; details: Huh-5-2, 96 h
[5] = Cytotoxicity against human Huh5-2 cells after 3 days by MTT assay; assay type: cell-based, Huh-5-2
Hepatitis C virus [6] = experiment: Antiviral activity against Hepatitis C virus genotype 1b infected in human HuH6 cells assessed as reduction in replicon RNA after 4days by RT-qPCR analysis; assay type: functional, organism-based, Hepacivirus hominis; details: HuH-6, 96 h
[7] = Cytotoxicity against human HuH6 cells after 3 days by MTT assay; assay type: cell-based
Hepatitis C virus [8] = experiment: Antiviral activity against Hepatitis C virus genotype 1b infected in human Huh-9-13 cells assessed as reduction in replicon RNA after 4days by RT-qPCR analysis; assay type: functional, organism-based, Hepacivirus hominis; details: 96 h

| EC50 (Hepatitis C virus [1]) [µM] | EC50 (Hepatitis C virus [4]) [µM] | EC50 (Hepatitis C virus [6]) [µM] | EC50 (Hepatitis C virus [8]) [µM] | Structure (SMILES) | CC50 at 72 h [2] [µM] | CC50 at 72 h [3] [µM] | CC50 at 72 h [5] [µM] | CC50 at 72 h [7] [µM] |
| --- | --- | --- | --- | --- | --- | --- | --- | --- |
| 1.7 | 0.12 | 0.29 | 0.4 | C[C@@]1(O)[C@H](O)[C@@H](CO)O[C@H]1n1cnc2c(N)ncnc21 | 21 | > 33 | > 33 | > 33 |
| 5 | 2.1 | 1.1 | 1.7 | C[C@@]1(F)[C@H](O)[C@@H](CO)O[C@@H]1n1ccc(N)nc1=O | > 33 | > 33 | > 33 | > 33 |
|  |  |  |  | O=C(O)c1cccs1 [THIOPHENE CARBOXYLIC ACID] | > 33 | > 33 | > 33 | > 33 |
| 1 | 1 | 1 | 0.6 | CCC[C@H](NC(=O)[C@@H]1[C@H]2CCC[C@H]2CN1C(=O)[C@@H](NC(=O)[C@@H](NC(=O)c1cnccn1)C1CCCCC1)C(C)(C)C)C(=O)C(=O)NC1CC1 | 24 | > 33 | > 33 | 25 |
| 1.8 | 1.8 | 11.3 | 0.6 | CC(C)CCn1c(=O)c(C2=NS(=O)(=O)c3ccccc3N2)c(O)c2ccccc21 | > 33 | > 33 | > 33 | > 33 |
| 0.3 | 0.3 | 0.24 | 0.5 | C/C=C/C[C@@H](C)[C@@H](O)[C@H]1C(=O)N[C@@H](CC)C(=O)N(C)CC(=O)N(C)[C@@H](CC(C)C)C(=O)N[C@@H](C(C)C)C(=O)N(C)[C@@H](CC(C)C)C(=O)N[C@@H](C)C(=O)N[C@H](C)C(=O)N(C)[C@@H](CC(C)C)C(=O)N(C)[C@@H](CC(C)C)C(=O)N(C)[C@@H](C(C)C)C(=O)N1C [CYCLOSPORINE] |  |  |  |  |
| 2 |  |  | 0.13 | CC(C)(C)NC(=O)N[C@H](C(=O)N1C[C@H]2[C@@H]([C@H]1C(=O)NC(CC1CCC1)C(=O)C(N)=O)C2(C)C)C(C)(C)C (some centres undefined) [BOCEPREVIR] | > 33 | > 33 | > 33 | > 33 |
| 2.2 | 1.4 | 6 | 1.6 | [N-]=[N+]=N[C@]1(CO)O[C@@H](n2ccc(N)nc2=O)[C@H](O)[C@@H]1O [4'-AZIDOCYTIDINE] | > 33 | > 33 | > 33 | > 33 |
| 0.8 | 1.1 | 1.2 | 1.5 | O=C(O)CNc1ccc(-c2ccc(Cl)cc2)c(COc2ccc(-c3nc4cc(C(=O)O)ccc4n3C3CCCCC3)cc2)c1 | 24 | 24 | 21.5 | 21 |
| 0.7 | 2 | 0.7 | 0.4 | C[C@@]1(O)[C@H](O)[C@@H](CO)O[C@H]1n1ccc(N)nc1=O | 25 | > 33 | > 33 | > 33 |

| Structure (SMILES) | EC50 (Hepatitis C virus [1]) [µM] | EC50 (Hepatitis C virus [4]) [µM] | EC50 (Hepatitis C virus [6]) [µM] | EC50 (Hepatitis C virus [8]) [µM] | CC50 at 72 h [2] [µM] | CC50 at 72 h [3] [µM] | CC50 at 72 h [5] [µM] | CC50 at 72 h [7] [µM] |
| --- | --- | --- | --- | --- | --- | --- | --- | --- |
| C/C=C/C[C@@H](C)[C@@H](O)[C@H]1C(=O)N[C@@H](CC)C(=O)N(C)[C@H](C)C(=O)N(CC)[C@@H](C(C)C)C(=O)N[C@@H](C(C)C)C(=O)N(C)[C@@H](CC(C)C)C(=O)N[C@@H](C)C(=O)N[C@H](C)C(=O)N(C)[C@@H](CC(C)C)C(=O)N(C)[C@@H](CC(C)C)C(=O)N(C)[C@@H](C(C)C)C(=O)N1C [ALISPORIVIR] | 0.04 | 0.06 | 0.05 |  | > 3 | > 3 | > 3 | > 3 |
| COc1ccc2c(O[C@@H]3C[C@H]4C(=O)N[C@]5(C(=O)O)C[C@H]5/C=C\CCCCC[C@H](NC(=O)OC5CCCC5)C(=O)N4C3)cc(-c3csc(NC(C)C)n3)nc2c1 | 0.01 | 0.04 | 0.004 | 0.015 | > 3 | > 3 | > 3 | > 3 |
| CNC(=O)c1c(-c2ccc(F)cc2)oc2cc(N(CCO)S(C)(=O)=O)c(C3CC3)cc12 [NESBUVIR] | 0.004 | 0.019 | 0.02 | 0.03 | > 33 | > 33 | > 33 | > 33 |
| Brc1c(Br)c(Br)c2[nH]nnc2c1Br [TETRABROMOBENZOTRIAZOLE] | 61 | 40 | 43 | 65 | > 100 | > 100 | > 100 | > 100 |
| OC[C@H]1O[C@@H](n2nnc3cc(Cl)c(Cl)cc32)[C@H](O)[C@@H]1O | 53 | 10 | 12 | 34 | > 100 | > 100 | > 100 | > 100 |
